Laboratory results: patent US9896441B2 (Lycera Corporation, priority 2014, dated 2018)

Key:
RORγ-LBD = target: T1, RORγ-LBD (Homo sapiens, UniProt P51449); experiment: RORγ-Ligand Binding Domain (LBD) TR-FRET Assay; assay type: biochemical; conditions: RORγ-LBD TR-FRET
T1 construct: made in house; host or cells: SF9 cells (baculovirus); used as diluted lysate
T1 sequence (P51449 269-508 limits assumed): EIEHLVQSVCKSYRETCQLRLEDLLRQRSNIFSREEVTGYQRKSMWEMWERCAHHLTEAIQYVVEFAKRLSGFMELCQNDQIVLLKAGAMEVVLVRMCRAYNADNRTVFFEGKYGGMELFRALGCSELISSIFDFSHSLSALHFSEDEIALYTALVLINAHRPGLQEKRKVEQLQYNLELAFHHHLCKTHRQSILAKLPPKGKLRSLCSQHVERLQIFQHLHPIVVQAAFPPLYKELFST
Summary of the method: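 This TR-FRET coactivator assay pairs baculovirus-expressed His-RORγ-LBD (~3 nM final) with biotin-SRC1 LXXLL peptide at 200 nM final in pH 7.0 Tris/KCl/EDTA/DTT/BSA buffer.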

Gal4-RORγ-LBD = target: T2, Gal4-RORγ-LBD (Homo sapiens, UniProt P51449); experiment: Gal4-RORγ Luciferase Reporter Assay in HEK-293T Cells; assay type: cell-based; conditions: HEK-293 cells, luciferase reporter, with ursolic acid
T2 construct: expressed in transfected cells
T2 sequence (P51449 269-508 limits assumed): T1 sequence (P51449 269-508 limits assumed)
Summary of the method: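 HEK-293 cells were co-transfected with Gal4-RORγ-LBD and a Gal4-luciferase reporter, then exposed overnight at 37 °C to compounds with […] ursolic acid present (0.2% DMSO). Luminescence was read with One-Glo after 10 min at RT, untreated signal was set as 100, and Max Response was taken as the upper plateau of a 4-parameter logistic fit.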

| SMILES | EC50 (RORγ-LBD) | EC50 (Gal4-RORγ-LBD) |
| --- | --- | --- |
| C/C(=C\c1ccc2c(c1)N(S(=O)(=O)c1ccc(F)c(OC(F)F)c1)C[C@H](CCC(=O)O)O2)c1c(F)cccc1Cl [Example 86AS, (S,E)-3-(6-(2-(2-chloro-6-fluorophenyl)prop-1-en-1-yl)-4-((3-(difluoromethoxy)-4-fluorophenyl)sulfonyl)-3,4-dihydro-2H-benzo[b][1,4]oxazin-2-yl)propanoic acid] | < 500 nM | < 500 nM |
| COC(=O)CC[C@H]1CN(S(=O)(=O)c2ccc(F)c(OC(F)F)c2)c2cc(/C=C(\C)c3c(F)cccc3Cl)ccc2O1 [Example 86AT, (S,E)-methyl 3-(6-(2-(2-chloro-6-fluorophenyl)prop-1-en-1-yl)-4-((3-(difluoromethoxy)-4-fluorophenyl)sulfonyl)-3,4-dihydro-2H-benzo[b][1,4]oxazin-2-yl)propanoate] | < 500 nM | < 500 nM |
| CCOc1nn(CC)cc1S(=O)(=O)N1C[C@H](CCC(=O)O)Oc2ccc(/C=C(\C)c3c(Cl)cccc3C(F)(F)F)cc21 [Example 86AW, (S,E)-3-(6-(2-(2-chloro-6-(trifluoromethyl)phenyl)prop-1-en-1-yl)-4-((3-ethoxy-1-ethyl-1H-pyrazol-4-yl)sulfonyl)-3,4-dihydro-2H-benzo[b][1,4]oxazin-2-yl)propanoic acid] | < 500 nM | < 500 nM |
| CCOc1nn(CC)cc1S(=O)(=O)N1C[C@H](CCC(=O)OC)Oc2ccc(/C=C(\C)c3c(Cl)cccc3C(F)(F)F)cc21 [Example 86AX, methyl (S,E)-3-(6-(2-(2-chloro-6-(trifluoromethyl)phenyl)prop-1-en-1-yl)-4-((3-ethoxy-1-ethyl-1H-pyrazol-4-yl)sulfonyl)-3,4-dihydro-2H-benzo[b][1,4]oxazin-2-yl)propanoate] | < 500 nM | 500 to 5000 nM |
| C/C(=C\c1ccc2c(c1)N(S(=O)(=O)c1cn(C(C)C)nc1OCCO)C[C@H](CCC(=O)O)O2)c1c(F)cccc1Cl [Example 86AY, (S,E)-3-(6-(2-(2-chloro-6-fluorophenyl)prop-1-en-1-yl)-4-((3-(2-hydroxyethoxy)-1-isopropyl-1H-pyrazol-4-yl)sulfonyl)-3,4-dihydro-2H-benzo[b][1,4]oxazin-2-yl)propanoic acid] | < 500 nM | < 500 nM |
| C/C(=C\c1ccc2c(c1)N(S(=O)(=O)c1cn(CC(F)F)nc1OCCO)C[C@H](CCC(=O)O)O2)c1c(F)cccc1Cl [Example 86AZ, (S)-3-(6-(2-(2-chloro-6-fluorophenyl)prop-1-en-1-yl)-4-((1-(2,2-difluoroethyl)-3-(2-hydroxyethoxy)-1H-pyrazol-4-yl)sulfonyl)-3,4-dihydro-2H-benzo[b][1,4]oxazin-2-yl)propanoic acid] | < 500 nM | 500 to 5000 nM |
| COC(=O)CC[C@H]1CN(S(=O)(=O)c2ccc(F)c(C(F)(F)F)c2)c2cc(/C=C(\C)c3c(F)cccc3Cl)ccc2O1 [Example 86B, (S,E)-methyl 3-(6-(2-(2-chloro-6-fluorophenyl)prop-1-en-1-yl)-4-((4-fluoro-3-(trifluoromethyl)-phenyl)sulfonyl)-3,4-dihydro-2H-benzo[b][1,4]oxazin-2-yl)propanoate] | < 500 nM | < 500 nM |
| C/C(=C\c1ccc2c(c1)N(S(=O)(=O)c1ccc(F)c(C3CC3)c1)C[C@H](CCC(=O)O)O2)c1c(F)cccc1Cl [Example 86C, (S,E)-3-(6-(2-(2-chloro-6-fluorophenyl)prop-1-en-1-yl)-4-((3-cyclopropyl-4-fluorophenyl)-sulfonyl)-3,4-dihydro-2H-benzo[b][1,4]oxazin-2-yl)-propanoic acid] | < 500 nM | < 500 nM |
| COC(=O)CC[C@H]1CN(S(=O)(=O)c2ccc(F)c(C3CC3)c2)c2cc(/C=C(\C)c3c(F)cccc3Cl)ccc2O1 [Example 86D, (S,E)-methyl 3-(6-(2-(2-chloro-6-fluorophenyl)prop-1-en-1-yl)-4-((3-cyclopropyl-4-fluorophenyl)-sulfonyl)-3,4-dihydro-2H-benzo[b][1,4]oxazin-2-yl)propanoate] | < 500 nM | < 500 nM |
| C/C(=C\c1ccc2c(c1)N(S(=O)(=O)c1ccc(F)c(Cl)c1)C[C@H](CCC(=O)O)O2)c1c(F)cccc1Cl [Example 86E, (S,E)-3-(4-((3-chloro-4-fluorophenyl)sulfonyl)-6-(2-(2-chloro-6-fluorophenyl)prop-1-en-1-yl)-3,4-dihydro-2H-benzo[b][1,4]oxazin-2-yl)propanoic acid] | < 500 nM | 500 to 5000 nM |
| COC(=O)CC[C@H]1CN(S(=O)(=O)c2ccc(F)c(Cl)c2)c2cc(/C=C(\C)c3c(F)cccc3Cl)ccc2O1 [Example 86F, (S,E)-methyl 3-(4-((3-chloro-4-fluorophenyl)sulfonyl)-6-(2-(2-chloro-6-fluorophenyl)prop-1-en-1-yl)-3,4-dihydro-2H-benzo-[b][1,4]oxazin-2-yl)propanoate] | < 500 nM | < 500 nM |
| CCn1cc(S(=O)(=O)N2C[C@H](CCC(=O)O)Oc3ccc(/C=C(\C)c4c(F)cccc4Cl)cc32)c(Cl)n1 [Example 86G, (S,E)-3-(4-((3-chloro-1-ethyl-1H-pyrazol-4-yl)sulfonyl)-6-(2-(2-chloro-6-fluorophenyl)prop-1-en-1-yl)-3,4-dihydro-2H-benzo[b][1,4]oxazin-2-yl)propanoic acid] | < 500 nM | 500 to 5000 nM |
| CCn1cc(S(=O)(=O)N2C[C@H](CCC(=O)OC)Oc3ccc(/C=C(\C)c4c(F)cccc4Cl)cc32)c(Cl)n1 [Example 86H, (S,E)-methyl 3-(4-((3-chloro-1-ethyl-1H-pyrazol-4-yl)sulfonyl)-6-(2-(2-chloro-6-fluorophenyl)prop-1-en-1-yl)-3,4-dihydro-2H-benzo[b][1,4]oxazin-2-yl)propanoate] | < 500 nM | 500 to 5000 nM |
| CCOc1nn(CC)cc1S(=O)(=O)N1C[C@H](CCC(=O)O)Oc2ccc(/C=C(\C)c3c(F)cccc3Cl)cc21 [Example 86I, (S,E)-3-(6-(2-(2-chloro-6-fluorophenyl)prop-1-en-1-yl)-4-((3-ethoxy-1-ethyl-1H-pyrazol-4-yl)sulfonyl)-3,4-dihydro-2H-benzo[b][1,4]oxazin-2-yl)propanoic acid] | < 500 nM | 500 to 5000 nM |
| CCOc1nn(CC)cc1S(=O)(=O)N1C[C@H](CCC(=O)OC)Oc2ccc(/C=C(\C)c3c(F)cccc3Cl)cc21 [Example 86J, (S,E)-methyl 3-(6-(2-(2-chloro-6-fluorophenyl)prop-1-en-1-yl)-4-((3-ethoxy-1-ethyl-1H-pyrazol-4-yl)sulfonyl)-3,4-dihydro-2H-benzo[b][1,4]oxazin-2-yl)propanoate] | < 500 nM | < 500 nM |
| COc1nn2c(c1S(=O)(=O)N1C[C@H](CCC(=O)O)Oc3ccc(/C=C(\C)c4c(F)cccc4Cl)cc31)CCCC2 [Example 86K, (S,E)-3-(6-(2-(2-chloro-6-fluorophenyl)prop-1-en-1-yl)-4-((2-methoxy-4,5,6,7-tetrahydropyrazolo[1,5-a]pyridin-3-yl)sulfonyl)-3,4-dihydro-2H-benzo[b][1,4]oxazin-2-yl)propanoic acid] | < 500 nM | < 500 nM |
| COC(=O)CC[C@H]1CN(S(=O)(=O)c2c(OC)nn3c2CCCC3)c2cc(/C=C(\C)c3c(F)cccc3Cl)ccc2O1 [Example 86L, (S,E)-methyl 3-(6-(2-(2-chloro-6-fluorophenyl)prop-1-en-1-yl)-4-((2-methoxy-4,5,6,7-tetrahydropyrazolo[1,5-a]pyridin-3-yl)-sulfonyl)-3,4-dihydro-2H-benzo[b][1,4]oxazin-2-yl)-propanoate] | < 500 nM | < 500 nM |
| COc1cccc(S(=O)(=O)N2C[C@H](CCC(=O)O)Oc3ccc(/C=C(\C)c4c(F)cccc4Cl)cc32)c1 [Example 86M, (S,E)-3-(6-(2-(2-chloro-6-fluorophenyl)prop-1-en-1-yl)-4-((3-methoxyphenyl)sulfonyl)-3,4-dihydro-2H-benzo[b][1,4]oxazin-2-yl)propanoic acid] | < 500 nM | 500 to 5000 nM |
| COC(=O)CC[C@H]1CN(S(=O)(=O)c2cccc(OC)c2)c2cc(/C=C(\C)c3c(F)cccc3Cl)ccc2O1 [Example 86N, (S,E)-methyl 3-(6-(2-(2-chloro-6-fluorophenyl)prop-1-en-1-yl)-4-((3-methoxyphenyl)sulfonyl)-3,4-dihydro-2H-benzo[b][1,4]oxazin-2-yl)propanoate] | < 500 nM | < 500 nM |
| C/C(=C\c1ccc2c(c1)N(S(=O)(=O)c1cccc(OC(F)F)c1)C[C@H](CCC(=O)O)O2)c1c(F)cccc1Cl [Example 86O, (S,E)-3-(6-(2-(2-chloro-6-fluorophenyl)prop-1-en-1-yl)-4-((3-(difluoromethoxy)phenyl)-sulfonyl)-3,4-dihydro-2H-benzo[b][1,4]oxazin-2-yl)propanoic acid] | < 500 nM | 500 to 5000 nM |
| COC(=O)CC[C@H]1CN(S(=O)(=O)c2cccc(OC(F)F)c2)c2cc(/C=C(\C)c3c(F)cccc3Cl)ccc2O1 [Example 86P, (S,E)-methyl 3-(6-(2-(2-chloro-6-fluorophenyl)prop-1-en-1-yl)-4-((3-(difluoromethoxy)phenyl)-sulfonyl)-3,4-dihydro-2H-benzo[b][1,4]oxazin-2-yl)propanoate] | < 500 nM | 500 to 5000 nM |
